According to PubChem BioAssay AID248 (DTP/NCI, 2004):
Several values for one entry are separate records, joined by “and”; a condition that tells them apart may be missing. Equal values may be shown once. Toxic doses and inconclusive results are not listed. Cut-off read from the data, not from the text of the source: active = T/C of 150% or more; inactive = T/C below 125%.

Test system: L1210 leukemia ip in BDF1 mice, survival T/C
Test: NCI In Vivo Anticancer Drug Screen. Data for tumor model L1210 Leukemia (intraperitoneal) in B6D2F1 (BDF1) mice
Conditions: endpoint: mean survival time, higher = longer survival
Outline: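 Value reflects the ratio of survival in compound-treated mice to survival in vehicle-treated controls, with both groups carrying the same transplanted tumor.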

[1] = dose: 100.0 mg/kg/injection, schedule: Q01DX009 (ip), vehicle: Klucel (hydroxypropylcellulose) (HPC)
[2] = dose: 100.0 mg/kg/injection, schedule: Q01DX009 (ip), vehicle: saline with Tween-80
[3] = dose: 200.0 mg/kg/injection, schedule: Q01DX009 (ip), vehicle: Klucel (hydroxypropylcellulose) (HPC)
[4] = dose: 200.0 mg/kg/injection, schedule: Q01DX009 (ip), vehicle: saline with Tween-80
[5] = dose: 400.0 mg/kg/injection, schedule: Q01DX009 (ip), vehicle: Klucel (hydroxypropylcellulose) (HPC)
[6] = dose: 400.0 mg/kg/injection, schedule: Q01DX009 (ip), vehicle: saline with Tween-80
[7] = dose: 100.0 mg/kg/injection, schedule: Q01DX009 (ip), vehicle: saline

Measured: T/C

CN1CCN=C1c1ccc(NC(=O)c2ccc(C(=O)Nc3ccc(C4=NCCN4C)cc3)c(Cl)c2)cc1
inactive: dose: 1.5 mg/kg/injection, schedule: Q01DX Z (ip), vehicle: water 101 % of control | dose: 3.0 mg/kg/injection, schedule: Q01DX Z (ip), vehicle: water 103 % of control | dose: 6.0 mg/kg/injection, schedule: Q01DX Z (ip), vehicle: water 119 % of control

COC(=O)C1C2C=CC(C2)C1C(=O)O (stereo not given)
inactive: [1] 103 % of control | [2] 92 % of control | dose: 100.0 mg/kg/injection, schedule: Q04DX003 (ip), vehicle: Klucel (hydroxypropylcellulose) (HPC) 98 % of control | [3] 92 % of control | [4] 86 % of control | dose: 200.0 mg/kg/injection, schedule: Q04DX003 (ip), vehicle: Klucel (hydroxypropylcellulose) (HPC) 97 % of control | [5] 88 % of control | [6] 87 % of control | dose: 400.0 mg/kg/injection, schedule: Q04DX003 (ip), vehicle: Klucel (hydroxypropylcellulose) (HPC) 97 % of control

Cc1ccc(S(=O)(=O)OCC2OCC(OC(=O)c3ccccc3)C(OC(=O)c3ccccc3)C2OC(=O)c2ccccc2)cc1 (stereo not given)
inactive: dose: 100.0 mg/kg/injection, schedule: Q04DX003 (ip), vehicle: saline with Tween-80 93 % of control | dose: 200.0 mg/kg/injection, schedule: Q04DX003 (ip), vehicle: saline with Tween-80 93 % of control | dose: 400.0 mg/kg/injection, schedule: Q04DX003 (ip), vehicle: saline with Tween-80 90 % of control

CCOC(=O)CCCNc1ccccc1C(=O)OC
inactive: dose: 100.0 mg/kg/injection, schedule: Q01DX001 (ip), vehicle: carboxymethylcellulose (CMC) 110 % of control | dose: 200.0 mg/kg/injection, schedule: Q01DX001 (ip), vehicle: carboxymethylcellulose (CMC) 107 % of control | dose: 400.0 mg/kg/injection, schedule: Q01DX001 (ip), vehicle: carboxymethylcellulose (CMC) 107 % of control

O=C(Nc1ccc(N=C(c2ccccc2)N2CCOCC2)cc1)c1ccc(C(=O)Nc2ccc(N=C(c3ccccc3)N3CCOCC3)cc2)cc1
inactive: dose: 62.0 mg/kg/injection, schedule: Q01DX Z (ip), vehicle: carboxymethylcellulose (CMC) 92 % of control | dose: 125.0 mg/kg/injection, schedule: Q01DX Z (ip), vehicle: carboxymethylcellulose (CMC) 86 % of control | dose: 250.0 mg/kg/injection, schedule: Q01DX Z (ip), vehicle: carboxymethylcellulose (CMC) 91 % of control

CC(=O)c1c(C)c(Cl)c(C)c(Cl)c1O
inactive: [1] 101 % of control | dose: 100.0 mg/kg/injection, schedule: Q04DX002 (ip), vehicle: Klucel (hydroxypropylcellulose) (HPC) 103 % of control and 107 % of control | [3] 104 % of control | dose: 200.0 mg/kg/injection, schedule: Q04DX002 (ip), vehicle: Klucel (hydroxypropylcellulose) (HPC) 103 % of control and 114 % of control | [5] 90 % of control | dose: 400.0 mg/kg/injection, schedule: Q04DX002 (ip), vehicle: Klucel (hydroxypropylcellulose) (HPC) 95 % of control and 107 % of control

CC(C)=NOC(=O)N(C)C
inactive: dose: 100.0 mg/kg/injection, schedule: Q01DX001 (ip), vehicle: saline 93 % of control | dose: 200.0 mg/kg/injection, schedule: Q01DX001 (ip), vehicle: saline 96 % of control | dose: 400.0 mg/kg/injection, schedule: Q01DX001 (ip), vehicle: saline 91 % of control

O=C(CI)Nc1cc(C(F)(F)F)ccc1Cl
inactive: dose: 25.0 mg/kg/injection, schedule: Q04DX003 (ip), vehicle: Klucel (hydroxypropylcellulose) (HPC) 102 % of control | dose: 50.0 mg/kg/injection, schedule: Q04DX003 (ip), vehicle: Klucel (hydroxypropylcellulose) (HPC) 94 % of control

O=C1c2ccccc2C2NCCCN12 (stereo not given)
inactive: [7] 102 % of control | dose: 200.0 mg/kg/injection, schedule: Q01DX009 (ip), vehicle: saline 100 % of control | dose: 400.0 mg/kg/injection, schedule: Q01DX009 (ip), vehicle: saline 96 % of control

CN(C)/C=C/c1nnc([N+](=O)[O-])s1
inactive: dose: 62.0 mg/kg/injection, schedule: Q04DX003 (ip), vehicle: Klucel (hydroxypropylcellulose) (HPC) 100 % of control | dose: 123.0 mg/kg/injection, schedule: Q04DX003 (ip), vehicle: Klucel (hydroxypropylcellulose) (HPC) 98 % of control | dose: 256.0 mg/kg/injection, schedule: Q04DX003 (ip), vehicle: Klucel (hydroxypropylcellulose) (HPC) 98 % of control | dose: 512.0 mg/kg/injection, schedule: Q04DX003 (ip), vehicle: Klucel (hydroxypropylcellulose) (HPC) 100 % of control

O=C(O)c1ccc(N=Nc2nc3[nH]c(=O)[nH]c(=O)c3[nH]2)cc1
inactive: dose: 50.0 mg/kg/injection, schedule: Q01DX009 (ip), vehicle: Klucel (hydroxypropylcellulose) (HPC) 97 % of control | [1] 97 % of control | [3] 87 % of control

C/C=C/CC(C/C=C/C)C1CC[N-]CC1.C/C=C/CC(C/C=C/C)C1CC[N-]CC1.[Cl][Pt+2]([Cl])([Cl])[Cl]
inactive: dose: 3.13 mg/kg/injection, schedule: Q01DX009 (ip), vehicle: other 94 % of control | dose: 6.25 mg/kg/injection, schedule: Q01DX009 (ip), vehicle: other 87 % of control | dose: 12.5 mg/kg/injection, schedule: Q01DX009 (ip), vehicle: other 105 % of control

N#CCc1ccc(N=Cc2ccc([N+](=O)[O-])s2)cc1
inactive: dose: 25.0 mg/kg/injection, schedule: Q04DX003 (ip), vehicle: saline with Tween-80 102 % of control | dose: 50.0 mg/kg/injection, schedule: Q04DX003 (ip), vehicle: saline with Tween-80 90 % of control

COc1cc(CN(C)C2CCCCC2)cc(OC)c1OC
inactive: dose: 6.25 mg/kg/injection, schedule: Q01DX009 (ip), vehicle: saline 103 % of control | dose: 12.5 mg/kg/injection, schedule: Q01DX009 (ip), vehicle: saline 103 % of control | dose: 25.0 mg/kg/injection, schedule: Q01DX009 (ip), vehicle: saline 100 % of control | dose: 25.0 mg/kg/injection, schedule: Q04DX003 (ip), vehicle: saline 97 % of control | dose: 50.0 mg/kg/injection, schedule: Q01DX009 (ip), vehicle: saline 94 % of control | dose: 50.0 mg/kg/injection, schedule: Q04DX003 (ip), vehicle: saline 103 % of control | [7] 90 % of control | dose: 100.0 mg/kg/injection, schedule: Q04DX003 (ip), vehicle: saline 100 % of control

CCCCCC(O)C1C(=O)OC(C)C(O)/C=C/C=C/C=C/C=C/C=C(\C)C(O)C(O)C(O)CC(O)CC(O)CC(O)CC(O)CC1O (stereo not given)
inactive: dose: 0.5 mg/kg/injection, schedule: Q01DX001 (ip), vehicle: saline 97 % of control | dose: 1.0 mg/kg/injection, schedule: Q01DX001 (ip), vehicle: saline 97 % of control | dose: 2.0 mg/kg/injection, schedule: Q01DX001 (ip), vehicle: saline 95 % of control | dose: 4.0 mg/kg/injection, schedule: Q01DX001 (ip), vehicle: saline 92 % of control | dose: 8.0 mg/kg/injection, schedule: Q01DX001 (ip), vehicle: saline 97 % of control

O=C(O)CCN1C(=O)c2ccccc2C1=O
inactive: [2] 96 % of control | [4] 95 % of control | [6] 102 % of control

CC(C)CCC[C@@H](C)[C@H]1CC[C@H]2[C@@H]3CC[C@H]4C[C@H](NC(=O)N(CCCl)N=O)CC[C@]4(C)[C@H]3CC[C@]12C
inactive: dose: 10.0 mg/kg/injection, schedule: Q01DX001 (ip), vehicle: other 103 % of control | dose: 23.0 mg/kg/injection, schedule: Q01DX001 (ip), vehicle: other 95 % of control | dose: 46.0 mg/kg/injection, schedule: Q01DX001 (ip), vehicle: other 104 % of control | dose: 93.0 mg/kg/injection, schedule: Q01DX001 (ip), vehicle: other 103 % of control | dose: 187.0 mg/kg/injection, schedule: Q01DX001 (ip), vehicle: other 103 % of control | dose: 375.0 mg/kg/injection, schedule: Q01DX001 (ip), vehicle: other 110 % of control | dose: 500.0 mg/kg/injection, schedule: Q01DX001 (ip), vehicle: other 104 % of control | dose: 1000.0 mg/kg/injection, schedule: Q01DX001 (ip), vehicle: other 119 % of control

CC(C)=C(Br)CC[C@@H](C)[C@H]1CC[C@@]2(C)C3=C(CC[C@]12C)[C@@]1(C)CC[C@H](O)C(C)(C)[C@@H]1CC3
inactive: dose: 62.0 mg/kg/injection, schedule: Q01DX Z (sc), vehicle: steriod suspending solution 102 % of control | dose: 125.0 mg/kg/injection, schedule: Q01DX Z (sc), vehicle: steriod suspending solution 95 % of control | dose: 250.0 mg/kg/injection, schedule: Q01DX Z (sc), vehicle: steriod suspending solution 95 % of control | dose: 500.0 mg/kg/injection, schedule: Q01DX Z (sc), vehicle: steriod suspending solution 95 % of control
